Common to all, as to assay: relative viability (nuclei count vs DMSO), 5 days (fraction); higher = more cells survive
Compound in the test “Doramapimod + Trametinib”: Cc1ccc(-n2nc(C(C)(C)C)cc2NC(=O)Nc2ccc(OCCN3CCOCC3)c3ccccc23)cc1 [Doramapimod] + CC(=O)Nc1cccc(-n2c(=O)n(C3CC3)c(=O)c3c(Nc4ccc(I)cc4F)n(C)c(=O)c(C)c32)c1 [Trametinib] (partner 0.02 µM)
In short, it runs like this:
(§1)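 Relative viability is defined as nuclei in treated wells over nuclei in vehicle wells. Duplicate plates were run and medians reported. Lung cancer cell lines in 1536-well plates were dosed by pin tool one day after seeding, with one drug or with a fixed anchor-drug dose plus five library-drug doses (not always all listed) in √10 steps, and nuclei were counted after 5 days.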

Compound in the test “IPA-3 + Tozasertib”: C1=CC=C2C(=C1)C=CC(=C2SSC3=C(C=CC4=CC=CC=C43)O)O [IPA-3] + Cc1cc(Nc2cc(N3CCN(C)CC3)nc(Sc3ccc(NC(=O)C4CC4)cc3)n2)n[nH]1 [Tozasertib] (partner 0.1 µM)
In short, it runs like this: as §1

Compound in the test “RAF265 + Dasatinib”: Cn1c(Nc2ccc(C(F)(F)F)cc2)nc2cc(Oc3ccnc(-c4ncc(C(F)(F)F)[nH]4)c3)ccc21 [RAF265] + Cc1nc(Nc2ncc(C(=O)Nc3c(C)cccc3Cl)s2)cc(N2CCN(CCO)CC2)n1 [Dasatinib] (partner 0.075 µM)
The procedure, abridged:
as §1

Compound in the test “Doramapimod + Pemetrexed”: Cc1ccc(-n2nc(C(C)(C)C)cc2NC(=O)Nc2ccc(OCCN3CCOCC3)c3ccccc23)cc1 [Doramapimod] + Nc1nc2[nH]cc(CCc3ccc(C(=O)N[C@@H](CCC(=O)O)C(=O)O)cc3)c2c(=O)[nH]1 [Pemetrexed] (partner 0.2 µM)
The procedure, abridged: as §1

As to PC-3 [JPC-3], the relative viability amounted to 0.849 with Doramapimod + Trametinib (first compound 0.02 µM); 0.726 in the test with Doramapimod + Trametinib (first compound 0.06325 µM); 0.748 in the test with Doramapimod + Trametinib (first compound 0.2 µM); 0.839 with Doramapimod + Trametinib (first compound 0.6325 µM); 0.845 in the test with Doramapimod + Trametinib (first compound 2 µM); 0.995 in the test with IPA-3 + Tozasertib (first compound 0.2 µM). The relative viability amounted to 0.847 with IPA-3 + Tozasertib (first compound 0.6325 µM); 0.869 with IPA-3 + Tozasertib (first compound 2 µM); 0.833 in the test with IPA-3 + Tozasertib (first compound 6.325 µM); 0.878 in the test with IPA-3 + Tozasertib (first compound 20 µM); 0.985 with RAF265 + Dasatinib (first compound 0.01 µM); 0.908 with RAF265 + Dasatinib (first compound 0.03162 µM). Besides, the relative viability in the test with RAF265 + Dasatinib (first compound 0.1 µM) came out at 1; with RAF265 + Dasatinib (first compound 1 µM), 0.696; with Doramapimod + Pemetrexed (first compound 0.02 µM) it was 1.27; in the test with Doramapimod + Pemetrexed (first compound 0.06325 µM) it was 1.37; with Doramapimod + Pemetrexed (first compound 0.2 µM), 1.24; in the test with Doramapimod + Pemetrexed (first compound 0.6325 µM), 0.933. Also, the relative viability in the test with Doramapimod + Pemetrexed (first compound 2 µM) was 1.03.
In the case of PC-14, the relative viability with Doramapimod + Trametinib (first compound 0.02 µM) came to 0.756; in the test with Doramapimod + Trametinib (first compound 0.06325 µM), 0.864; in the test with Doramapimod + Trametinib (first compound 0.2 µM) it was 0.782; with Doramapimod + Trametinib (first compound 0.6325 µM) it was 0.856; in the test with Doramapimod + Trametinib (first compound 2 µM), 0.619; with IPA-3 + Tozasertib (first compound 0.2 µM), 0.693. For the same cell line, the relative viability with IPA-3 + Tozasertib (first compound 0.6325 µM) stood at 0.612; in the test with IPA-3 + Tozasertib (first compound 2 µM), 0.647; with IPA-3 + Tozasertib (first compound 6.325 µM), 0.539; with IPA-3 + Tozasertib (first compound 20 µM), 0.649; with RAF265 + Dasatinib (first compound 0.01 µM), 0.262; with RAF265 + Dasatinib (first compound 0.03162 µM), 0.274. Besides, the relative viability turned out to be 0.241 in the test with RAF265 + Dasatinib (first compound 0.1 µM); 0.0905 with RAF265 + Dasatinib (first compound 1 µM); 0.129 in the test with Doramapimod + Pemetrexed (first compound 0.02 µM); 0.128 with Doramapimod + Pemetrexed (first compound 0.06325 µM); 0.134 in the test with Doramapimod + Pemetrexed (first compound 0.2 µM); 0.148 with Doramapimod + Pemetrexed (first compound 0.6325 µM). Further, the relative viability in the test with Doramapimod + Pemetrexed (first compound 2 µM) came to 0.109.
In the case of RERF-LC-KJ, the relative viability with Doramapimod + Trametinib (first compound 0.02 µM) worked out at 0.969; in the test with Doramapimod + Trametinib (first compound 0.06325 µM), 0.881; with Doramapimod + Trametinib (first compound 0.2 µM), 0.901; with Doramapimod + Trametinib (first compound 0.6325 µM), 0.984; in the test with Doramapimod + Trametinib (first compound 2 µM), 0.885; in the test with IPA-3 + Tozasertib (first compound 0.2 µM) it was 0.513. The relative viability with IPA-3 + Tozasertib (first compound 0.6325 µM) was 0.452; with IPA-3 + Tozasertib (first compound 2 µM), 0.471; with IPA-3 + Tozasertib (first compound 6.325 µM) it was 0.456; in the test with IPA-3 + Tozasertib (first compound 20 µM), 0.403; with RAF265 + Dasatinib (first compound 0.01 µM), 0.822; in the test with RAF265 + Dasatinib (first compound 0.03162 µM), 0.735. Besides, the relative viability with RAF265 + Dasatinib (first compound 0.1 µM) came to 0.658; in the test with RAF265 + Dasatinib (first compound 0.3162 µM), 0.456; with RAF265 + Dasatinib (first compound 1 µM), 0.4; with Doramapimod + Pemetrexed (first compound 0.02 µM), 0.471; with Doramapimod + Pemetrexed (first compound 0.06325 µM), 0.457; in the test with Doramapimod + Pemetrexed (first compound 0.2 µM), 0.474. Further, the relative viability with Doramapimod + Pemetrexed (first compound 0.6325 µM) was determined as 0.367; in the test with Doramapimod + Pemetrexed (first compound 2 µM) it was 0.501.
Regarding SK-LU-1, the relative viability with Doramapimod + Trametinib (first compound 0.02 µM) was found to be 0.469; in the test with Doramapimod + Trametinib (first compound 0.06325 µM), 0.593; with Doramapimod + Trametinib (first compound 0.2 µM) it was 0.588; with Doramapimod + Trametinib (first compound 0.6325 µM), 0.624; in the test with Doramapimod + Trametinib (first compound 2 µM), 0.555; with IPA-3 + Tozasertib (first compound 0.2 µM), 0.328. Moreover, the relative viability with IPA-3 + Tozasertib (first compound 0.6325 µM) was found to be 0.36; with IPA-3 + Tozasertib (first compound 2 µM) it was 0.338; with IPA-3 + Tozasertib (first compound 6.325 µM), 0.339; in the test with IPA-3 + Tozasertib (first compound 20 µM), 0.302; in the test with RAF265 + Dasatinib (first compound 0.01 µM), 0.177; with RAF265 + Dasatinib (first compound 0.03162 µM) it was 0.177. Besides, the relative viability with RAF265 + Dasatinib (first compound 0.1 µM) was found to be 0.166; with RAF265 + Dasatinib (first compound 0.3162 µM), 0.181; with RAF265 + Dasatinib (first compound 1 µM), 0.137; with Doramapimod + Pemetrexed (first compound 0.02 µM) it was 1; in the test with Doramapimod + Pemetrexed (first compound 0.06325 µM) it was 0.937; with Doramapimod + Pemetrexed (first compound 0.2 µM), 0.964. For the same cell line, the relative viability is 0.863 with Doramapimod + Pemetrexed (first compound 0.6325 µM) and 0.946 in the test with Doramapimod + Pemetrexed (first compound 2 µM).
Consider SK-MES-1, for which the relative viability with Doramapimod + Trametinib (first compound 0.02 µM) was found to be 0.55; with Doramapimod + Trametinib (first compound 0.06325 µM), 0.56; in the test with Doramapimod + Trametinib (first compound 0.2 µM), 0.477; with Doramapimod + Trametinib (first compound 0.6325 µM) it was 0.519; in the test with Doramapimod + Trametinib (first compound 2 µM), 0.483; in the test with IPA-3 + Tozasertib (first compound 0.2 µM) it was 0.991. In addition, the relative viability with IPA-3 + Tozasertib (first compound 0.6325 µM) is 0.775; in the test with IPA-3 + Tozasertib (first compound 2 µM), 0.933; with IPA-3 + Tozasertib (first compound 6.325 µM), 0.804; with IPA-3 + Tozasertib (first compound 20 µM), 0.694; with RAF265 + Dasatinib (first compound 0.01 µM) it was 0.482; in the test with RAF265 + Dasatinib (first compound 0.03162 µM), 0.203. Besides, the relative viability with RAF265 + Dasatinib (first compound 0.1 µM) stood at 0.164; with RAF265 + Dasatinib (first compound 0.3162 µM), 0.171; in the test with RAF265 + Dasatinib (first compound 1 µM), 0.157; in the test with Doramapimod + Pemetrexed (first compound 0.02 µM), 0.895; with Doramapimod + Pemetrexed (first compound 0.06325 µM), 0.96; with Doramapimod + Pemetrexed (first compound 0.2 µM), 0.986. Also, the relative viability with Doramapimod + Pemetrexed (first compound 0.6325 µM) amounted to 0.942; with Doramapimod + Pemetrexed (first compound 2 µM), 0.795.
Consider SW 900, for which the relative viability with Doramapimod + Trametinib (first compound 0.02 µM) came to 0.761; with Doramapimod + Trametinib (first compound 0.06325 µM) it was 0.875; with Doramapimod + Trametinib (first compound 0.2 µM), 0.974; in the test with Doramapimod + Trametinib (first compound 0.6325 µM) it was 0.749; in the test with Doramapimod + Trametinib (first compound 2 µM), 0.769; with IPA-3 + Tozasertib (first compound 0.2 µM), 0.56. The relative viability came out at 0.53 with IPA-3 + Tozasertib (first compound 0.6325 µM); 0.496 with IPA-3 + Tozasertib (first compound 2 µM); 0.566 in the test with IPA-3 + Tozasertib (first compound 6.325 µM); 0.56 with IPA-3 + Tozasertib (first compound 20 µM); 0.595 in the test with RAF265 + Dasatinib (first compound 0.01 µM); 0.548 with RAF265 + Dasatinib (first compound 0.03162 µM). Further, the relative viability with RAF265 + Dasatinib (first compound 0.1 µM) was found to be 0.552; with RAF265 + Dasatinib (first compound 0.3162 µM) it was 0.297; with RAF265 + Dasatinib (first compound 1 µM), 0.272; with Doramapimod + Pemetrexed (first compound 0.02 µM) it was 0.513; with Doramapimod + Pemetrexed (first compound 0.06325 µM), 0.513; with Doramapimod + Pemetrexed (first compound 0.2 µM) it was 0.478. For the same cell line, the relative viability in the test with Doramapimod + Pemetrexed (first compound 0.6325 µM) is 0.502; with Doramapimod + Pemetrexed (first compound 2 µM), 0.479.
For the cell line SW 1573, the relative viability amounted to 0.524 with Doramapimod + Trametinib (first compound 0.02 µM); 0.429 with Doramapimod + Trametinib (first compound 0.06325 µM); 0.451 with Doramapimod + Trametinib (first compound 0.2 µM); 0.452 in the test with Doramapimod + Trametinib (first compound 0.6325 µM); 0.514 with Doramapimod + Trametinib (first compound 2 µM); 0.16 with IPA-3 + Tozasertib (first compound 0.2 µM). The relative viability with IPA-3 + Tozasertib (first compound 0.6325 µM) worked out at 0.23; with IPA-3 + Tozasertib (first compound 2 µM), 0.222; in the test with IPA-3 + Tozasertib (first compound 6.325 µM), 0.155; with IPA-3 + Tozasertib (first compound 20 µM), 0.136; with RAF265 + Dasatinib (first compound 0.01 µM), 0.54; in the test with RAF265 + Dasatinib (first compound 0.03162 µM), 0.442. Also, the relative viability with RAF265 + Dasatinib (first compound 0.1 µM) stood at 0.31; with RAF265 + Dasatinib (first compound 0.3162 µM), 0.29; in the test with RAF265 + Dasatinib (first compound 1 µM), 0.21; in the test with Doramapimod + Pemetrexed (first compound 0.02 µM) it was 0.772; in the test with Doramapimod + Pemetrexed (first compound 0.06325 µM) it was 0.794; with Doramapimod + Pemetrexed (first compound 0.2 µM), 0.773. In addition, the relative viability with Doramapimod + Pemetrexed (first compound 0.6325 µM) came to 0.938; in the test with Doramapimod + Pemetrexed (first compound 2 µM), 0.721.

These data come from the supplement of paper PMC10307832.
